Laboratory results from US9028845B2, “Chimeric immunomodulatory compounds and methods of using the same-IV” (Dynavax Technologies Corporation, priority 2001, dated 2015).

Tests used:
CD19+ B cells = assay: Human B cell proliferation assay (3H-thymidine incorporation); details: B cells, 2 μg/ml, Experiment B
Protocol: Purified human B cells from 2 donors were stimulated with 5 μg/ml P-6 or CIC for 96 h. Proliferation was assessed by ^3H-thymidine incorporation.
A CIC is considered to induce “little” human B cell proliferation if B cell proliferation in the presence of the CIC is between greater than 15 to about 30% of P-6.
Human PBMCs were isolated from heparanized blood from two normal subjects. Some PBMCs were held in reserve while the remainder was incubated with CD19+ MACS beads (Miltenyi Biotec). These cells were then passed through a magnet, separating the CD19+ B cells through positive selection. […] B cells were then cultured at 1×10^5/200 μl/well in 96-well round-bottomed plates. In some cases, PBMCs were also cultured, but at 2×10^5/200 μl/well. Cells were stimulated in triplicate with 2 μg/ml polynucleotide or CIC. The culture period was 48 hours at 37° C. At the end of the culture period, the plates were pulsed with ^3H-thymidine, 1 μCi/well, and incubated for an additional 8 hours. Then the plates were harvested using standard liquid scintillation techniques and data was collected in counts per minutes (cpm).

mouse lung = assay: Induction of immune-associated genes in the mouse lung after intranasal treatment (quantitative PCR); format: in vivo, BALB/c mice; details: 20 ug intranasal, 6 hrs; vs P-7 treated mice
Protocol: The genes evaluated included genes encoding cytokines, chemokines, cell surface molecules, transcription factors, metalloproteases, and other molecules. The study was performed at Northview Pacific Laboratories (Hercules, Calif.) with 6-8 week old female BALB/c mice from Jackson Labs (Bar Harbor, Me.). […] Therefore, at 6 hrs the lungs were harvested and snap-frozen in liquid nitrogen and stored at −80° C. for later use. Total RNA was isolated using RNeasy mini kits (Qiagen Inc., Valencia, Calif.). The RNA samples were DNAse-treated (Roche Diagnostics, Mannheim, Germany) and converted into cDNA using Superscript II Rnase H-Reverse Transcriptase (Invitrogen, Rockville Md.) as described in Scheerens et al., 2001, Eur. J. of Immunology 31:1465-74. The cDNA samples were pooled per group and in each pooled sample the expression of mRNA of 75 genes was measured using real-time quantitative PCR (ABI Prism 5700, Perkin Elmer Applied Biosystems) and syber green (Qiagen Inc.). In addition to the genes of interest, in each sample the mRNA expression of a housekeeping gene was measured (HPRT or ubiquitin). In order to correct for the amount of RNA in each sample, all data were calculated relative to the expression of the housekeeping gene.

human PBMCs = assay: Human PBMC cytokine response assay (IFN-γ and IFN-α in cell-free medium by ELISA), with or without cPLGA; format: cell-based;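 on IFN-α (pg/ml) mean: 20 µg/mL compound for 24 hours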;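 on IFN-γ (pg/ml) mean: 20 µg/mL compound for 24 hours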
mice = assay: Serum cytokines (IL-12 p40, IL-6, TNF-α) after subcutaneous injection in mice; format: in vivo; details: 20 ug subcutaneous
Protocol: Blood was collected 2 hours later. For the LPS positive control group, mice were injected intraperitoneally with a 200 ul volume, and blood was collected 1.5 hours later (i.e., at the peak of LPS induced TNF-α activity). The blood was clotted and the serum was prepared and stored at −80° C. until assayed. Serum cytokines were assayed using Biosource cytoscreen kits for TNF-α and Pharmingen antibody pairs for mIL-6 and mIL-12. All samples were assayed in duplicate.

[1] = donor 28066, 20 ug/ml, 24 h, + PLGA = premixed with 100 μg/ml cPLGA
[2] = donor 28067, 20 ug/ml, 24 h, + PLGA = premixed with 100 μg/ml cPLGA
[3] = donor 28068, 20 ug/ml, 24 h, + PLGA = premixed with 100 μg/ml cPLGA
[4] = mean of donors 28065-28068, 20 ug/ml, 24 h, + PLGA = premixed with 100 μg/ml cPLGA
[5] = mean of donors 28185-28188, Table 15

Question: Which cpm1 (CD19+ B cells; donor 121) does the source give for “5′-TCGTCG-3′-HEG-5′-AACGTT-3′-HEG-5′-AGATGAT-3′ [Compound C-23]” here?
Answer: 10628 cpm

Question: What about the cpm2 (CD19+ B cells; donor 121) of the same substance?
Answer: 16221 cpm

Question: And the cpm3 (CD19+ B cells; donor 121)?
Answer: 20087 cpm

Question: And the mean cpm (CD19+ B cells; donor 121 mean)?
Answer: 15645 cpm

Question: What about the cpm1 (CD19+ B cells; donor 194) of the same substance?
Answer: 8730 cpm

Question: What about the cpm2 (CD19+ B cells; donor 194) of the same substance?
Answer: 6532 cpm

Question: What about the cpm3 (CD19+ B cells; donor 194) of the same substance?
Answer: 9596 cpm

Question: What about the mean cpm (CD19+ B cells; donor 194 mean) of the same substance?
Answer: 8286 cpm

Question: And the mean of both (CD19+ B cells; mean of donors 121 and 194)?
Answer: 11966 cpm

Question: And the “mRNA expression of immune-associated genes in the lung, in words” value (mouse lung)?
Answer: potently induce the expression of a variety of genes

Question: And the IFN-α (human PBMCs; Table 13, donor 28156)?
Answer: 26 pg/mL

Question: And the IFN-γ (human PBMCs; Table 13, donor 28156)?
Answer: 733 pg/mL

Question: And the IFN-α (human PBMCs; Table 13, donor 28157)?
Answer: 235 pg/mL

Question: What about the IFN-γ (human PBMCs; Table 13, donor 28157) of the same substance?
Answer: 576 pg/mL

Question: And the IFN-α (human PBMCs; Table 13, donor 28158)?
Answer: 59 pg/mL

Question: What about the IFN-γ (human PBMCs; Table 13, donor 28158) of the same substance?
Answer: 202 pg/mL

Question: What about the IFN-α (human PBMCs; Table 13, donor 28159) of the same substance?
Answer: 169 pg/mL

Question: And the IFN-γ (human PBMCs; Table 13, donor 28159)?
Answer: 295 pg/mL

Question: And the IFN-α mean (human PBMCs; Table 13, mean of donors)?
Answer: 122 pg/mL

Question: What about the IFN-γ mean (human PBMCs; Table 13, mean of donors) of the same substance?
Answer: 452 pg/mL

Question: What about the “IFN-γ (pg/ml) 28065” value (human PBMCs; donor 28065 (high background), 20 ug/ml, 24 h, + PLGA = premixed with 100 μg/ml cPLGA, 1000 = outside assay limits) of the same substance?
Answer: 438 pg/mL

Question: What about the “IFN-α (pg/ml) 28065” value (human PBMCs; donor 28065, 20 ug/ml, 24 h, + PLGA = premixed with 100 μg/ml cPLGA) of the same substance?
Answer: 52 pg/mL

Question: And the “IFN-α (pg/ml) 28066” value (human PBMCs; [1])?
Answer: 3 pg/mL

Question: And the “IFN-γ (pg/ml) 28066” value (human PBMCs; [1])?
Answer: 5 pg/mL

Question: What about the “IFN-α (pg/ml) 28067” value (human PBMCs; [2]) of the same substance?
Answer: 19 pg/mL

Question: And the “IFN-γ (pg/ml) 28067” value (human PBMCs; [2])?
Answer: 6 pg/mL

Question: What about the “IFN-α (pg/ml) 28068” value (human PBMCs; [3]) of the same substance?
Answer: 137 pg/mL

Question: What about the “IFN-γ (pg/ml) 28068” value (human PBMCs; [3]) of the same substance?
Answer: 238 pg/mL

Question: And the “IFN-a” value (human PBMCs; donor 28185, Table 15)?
Answer: 83 pg/mL

Question: And the “IFN-g” value (human PBMCs; donor 28185, Table 15)?
Answer: 42 pg/mL

Question: What about the “IFN-a” value (human PBMCs; donor 28186, Table 15) of the same substance?
Answer: 27 pg/mL

Question: And the “IFN-g” value (human PBMCs; donor 28186, Table 15)?
Answer: 14 pg/mL

Question: What about the “IFN-a” value (human PBMCs; donor 28187, Table 15) of the same substance?
Answer: 59 pg/mL

Question: And the “IFN-g” value (human PBMCs; donor 28187, Table 15)?
Answer: 29 pg/mL

Question: And the “IFN-a” value (human PBMCs; donor 28188, Table 15)?
Answer: 55 pg/mL

Question: What about the “IFN-g” value (human PBMCs; donor 28188, Table 15) of the same substance?
Answer: 3 pg/mL

Question: What about the “IFN-α (pg/ml) mean” value (human PBMCs; [4]) of the same substance?
Answer: 53 pg/mL

Question: What about the “IFN-γ (pg/ml) mean” value (human PBMCs; [4]) of the same substance?
Answer: 172 pg/mL

Question: And the “IFN-a (pg/ml) mean” value (human PBMCs; [5])?
Answer: 56 pg/mL

Question: What about the “IFN-g (pg/ml) mean” value (human PBMCs; [5]) of the same substance?
Answer: 22 pg/mL

Question: What about the “IFN-a (pg/ml) ×2” value (human PBMCs; mean ×2, Table 15) of the same substance?
Answer: 112 pg/mL

Question: What about the “IFN-g (pg/ml) ×4” value (human PBMCs; mean ×4, Table 15) of the same substance?
Answer: 88 pg/mL

Question: And the “potency in serum cytokine induction compared with other compounds, in words” value (mice)?
Answer: more potent than C-9 and P-6

Question: What about the “induction of serum IL-12 p40, IL-6 and TNF-α, in words” value (mice; blood 2 hours later) of the same substance?
Answer: induced IL-12 p40, IL-6, and TNF-α
